# Measured values taken from patent US20080146593A1, “Substituted 5-Phenyl Pyrimidines I In Therapy” (Basf Aktiengesellschaft, priority 2005, published 2008).
# Tested on: HeLa cells
# Assay: Measurement of the cell cycle inhibition in HeLa cells
# Type: cell-based
# Settings: HeLa B cells, 20 h incubation with compound; FACS ratio G0/G1 to G2/M vs DMSO; concentration at which 50% of cells are in cell cycle arrest
# Experimental: Measurement of the Cell Cycle Inhibition in HeLa Cells—Test Procedure:
# HeLa B cells are grown in DMEM (Life Technologies Cat No 21969-035) supplemented with 10% Fetal Calf Serum (FCS, Life Technologies Cat No 10270-106) in 180 cm^2 Flasks at 37° C., 92% humidity and 7% CO2.
# Cells are seeded at 5×10^4 cells per well in a 24-well plate. Twenty hours later the compounds are added such that the final concentration is 1×10^−6, 3.3×10^−7, 1.1×10^−7, 3.7×10^−8, 1.2×10^−8 and 1×10^−9 M in a final volume of 500 μl. DMSO alone is added to 6 wells as a control. Cells are incubated with the compounds as above for 20 h. Then cells are observed under the microscope to check for cell death, and the 24-well plate is then centrifuged at 1200 rpm for 5 min at 20° C., acceleration position 7 and break position 5 (Eppendorf centrifuge 5804R).
# The supernatant is removed and the cells lysed with 0.5 ml RNase Buffer (10 mM NaCitrate, 0.1% Nonidet NP40, 50 μg/ml RNase, 10 μg/ml Propidium iodide) per well. The plates are then incubated for at least 30 min in the dark at RT and the samples then transferred to FACS tubes. Samples are measured in a FACS machine (Beckton Dickinson) at the following settings:
# Instrument Settings of the FACS Calibur:
# The ratio of cells in G0/G1-phase to G2/M phase is calculated and compared to the value for the controls (DMSO) only. Results are given in table 2 as the IC50 value calculated from the concentration curve plotted against the cell cycle ratio and indicate the compound concentration at which 50% of cells are in cell cycle arrest after treatment with the compound.
row,SMILES,IC50 [nM]
1,C[C@H](Nc1nc(-n2ccc(Br)n2)nc(Cl)c1-c1c(F)cc(F)cc1F)C(F)(F)F [Example 38],24
2,CC1CCN(c2nc(-n3cccn3)nc(Cl)c2-c2c(F)cccc2F)CC1 [Example 115],23
3,Fc1cc(F)c(-c2c(Cl)nc(-n3ccnn3)nc2N2CC=CCC2)c(F)c1 [Example 45],17
4,COc1cc(F)c(-c2c(Cl)nc(-c3ccccn3)nc2N[C@@H](C)C(C)C)c(F)c1 [Example 65],20
5,CC1CCCN1c1nc(-n2cccn2)nc(Cl)c1-c1c(F)cccc1F (stereo not drawn) [Example 140],20
6,CC1CCN(c2nc(-c3nccs3)nc(Cl)c2-c2c(F)cc(F)cc2F)CC1 [Example 39],26
7,COc1cc(F)c(-c2c(Cl)nc(-c3ccccn3)nc2NC(C)C)c(F)c1 [Example 62],23
8,Fc1cc(F)c(-c2c(Cl)nc(-c3nccs3)nc2NC2CCCC2)c(F)c1 [Example 40],23
9,CC(C)Nc1nc(-c2ccccn2)nc(Cl)c1-c1c(F)cccc1F [Example 83],37
10,Cc1nc(-n2cccn2)nc(N[C@@H](C)C(F)(F)F)c1-c1c(F)cc(F)cc1F [Example 156],15
11,COCC(C)Nc1nc(-n2ccc(N)n2)nc(Cl)c1-c1ccc(C)cc1F (stereo not drawn) [Example 128],38
12,C[C@H](Nc1nc(-c2cnccn2)nc(Cl)c1-c1c(F)cc(F)cc1F)C(F)(F)F [Example 27],3.5
13,CCC(C)Nc1nc(-n2ccc(N)n2)nc(Cl)c1-c1c(C)cccc1F (stereo not drawn) [Example 143],32
14,CC1CCN(c2nc(-n3ccnn3)nc(Cl)c2-c2ccc(F)cc2Cl)CC1 [Example 119],48
15,CCCC(C)Nc1nc(-n2ccc(N)n2)nc(Cl)c1-c1ccc(C)cc1F (stereo not drawn) [Example 121],50
16,CON=C(N)c1nc(Cl)c(-c2c(F)cc(F)cc2F)c(N[C@H](C)C(F)(F)F)n1 [Example 130],1.8
17,Cc1nn(-c2nc(Cl)c(-c3c(F)cc(F)cc3F)c(N[C@@H](C)C(F)(F)F)n2)c(C)c1Cl [Example 3],31
18,CC(C)[C@@H](C)Nc1nc(-n2ccnn2)nc(Cl)c1-c1c(F)cccc1Cl [Example 50],9.1
19,C=C(C)CNc1nc(-n2ccc(N)n2)nc(Cl)c1-c1c(F)cc(F)cc1F [Example 122],46
20,CC(C)C(C)Nc1nc(-c2ccccn2)nc(Cl)c1-c1c(F)cccc1F (stereo not drawn) [Example 84],27
21,CC(C)[C@@H](C)Nc1nc(-n2cnc([N+](=O)[O-])n2)nc(Cl)c1-c1c(F)cc(F)cc1F [Example 89],47

row,SMILES,IC50 [nM]
1,CCC(C)Nc1nc(-n2cccn2)nc(Cl)c1-c1ccc(F)cc1F (stereo not drawn) [Example 105],45
2,CON=C(N)c1nc(Cl)c(-c2c(F)cc(F)cc2F)c(N[C@@H](C)C(C)C)n1 [Example 147],41
3,Cc1nc(C)n(-c2nc(Cl)c(-c3c(F)cc(F)cc3F)c(N3CCCC3C)n2)n1 (stereo not drawn) [Example 77],35
4,CC1CCN(c2nc(-n3ccnn3)nc(Cl)c2-c2c(F)cccc2Cl)CC1 [Example 49],10
5,Cc1nc(-c2nc(Cl)c(-c3c(F)cc(F)cc3F)c(N[C@H](C)C(C)C)n2)cs1 [Example 70],35
6,Cc1cccc(-c2nc(Cl)c(-c3c(F)cc(F)cc3F)c(NC(C)C)n2)n1 [Example 11],42
7,CC(C)Nc1nc(-n2ccc(N)n2)nc(Cl)c1-c1c(F)cc(F)cc1F [Example 104],47
8,CC(C)Nc1nc(-c2cnccn2)nc(Cl)c1-c1c(F)cccc1Cl [Example 25],24
9,CC(C)[C@@H](C)Nc1nc(-n2cncn2)nc(Cl)c1-c1c(F)cccc1Cl [Example 48],13
10,CC(C)[C@@H](C)Nc1nc(-n2cccn2)nc(Cl)c1-c1c(F)cccc1Cl [Example 46],38
11,C=CCCN(C)c1nc(-n2cc(C)cn2)nc(Cl)c1-c1ccc(F)cc1Cl [Example 133],41
12,CCC(C)Nc1nc(ON=C(C)C)nc(Cl)c1-c1c(C)cccc1F (stereo not drawn) [Example 112],21
13,CC1CCCN(c2nc(-n3ccnn3)nc(Cl)c2-c2c(F)cc(F)cc2F)C1 (stereo not drawn) [Example 42],18
14,Cc1ccn(-c2nc(Cl)c(-c3c(F)cccc3Cl)c(NC(C)C)n2)n1 [Example 20],39
15,CCC(C)Nc1nc(-n2cccn2)nc(Cl)c1-c1ccc(C)cc1F (stereo not drawn) [Example 97],13
16,C=CCN(C)c1nc(-n2cccn2)nc(Cl)c1-c1c(F)cc(F)cc1F [Example 142],39
17,C[C@H](Nc1nc(-n2ccc(-c3ccccc3)n2)nc(Cl)c1-c1c(F)cc(F)cc1F)C(F)(F)F [Example 4],41
18,COc1cc(F)c(-c2c(Cl)nc(-c3ccccn3)nc2N2CCC(C)CC2)c(F)c1 [Example 61],21
19,COc1cc(F)c(-c2c(Cl)nc(-n3cccn3)nc2N2CCC(C)CC2)c(F)c1 [Example 67],13
20,CC(C)[C@H](C)Nc1nc(-n2ccnn2)nc(Cl)c1-c1c(F)cc(F)cc1F [Example 139],26

# Second part, the molecule after the results:
row,IC50 [nM],SMILES
1,53,COc1ccc(-c2c(Cl)nc(C(N)=O)nc2N[C@@H](C)C(C)C)c(Cl)c1 [Example 183]
2,59,CON=C(N)c1nc(Cl)c(-c2ccc(F)cc2Cl)c(N2CCCC2C)n1 (stereo not drawn) [Example 170]
3,36,C[C@H](Nc1nc(C(N)=NO)nc(Cl)c1-c1cc(F)ccc1Cl)C(F)(F)F [Example 220]
4,17,C[C@H](Nc1nc(-n2cc(C#N)cn2)nc(Cl)c1-c1c(F)cc(F)cc1F)C(F)(F)F [Example 162]
5,42,Cc1nc(-n2ccnn2)nc(N2CCC(C)CC2)c1-c1c(F)cccc1Cl [Example 166]
6,30,CON=C(N)c1nc(Cl)c(-c2cc(F)ccc2Cl)c(N[C@@H](C)C(F)(F)F)n1 [Example 221]
7,39,C[C@H](Nc1nc(-n2cc(C#N)c(N)n2)nc(Cl)c1-c1c(F)cccc1Cl)C(F)(F)F [Example 187]
8,18,NC(=NO)c1nc(Cl)c(-c2c(F)cc(F)cc2F)c(NCC(F)(F)F)n1 [Example 173]
9,23,COc1ccc(-c2c(Cl)nc(C(N)=O)nc2N[C@@H](C)C(F)(F)F)c(Cl)c1 [Example 217]
10,20,Cc1csc(-c2nc(Cl)c(-c3c(F)cc(F)cc3F)c(N[C@@H](C)C(F)(F)F)n2)n1 [Example 178]
11,53,CC1CCN(c2nc(C(N)=O)nc(Cl)c2-c2c(F)cccc2F)CC1 [Example 179]
12,30,CC(C)[C@H](C)Nc1nc(C(N)=NO)nc(Cl)c1-c1ccc([N+](=O)[O-])cc1Cl [Example 192]
13,33,COc1cc(F)c(-c2c(Cl)nc(C(N)=O)nc2N[C@@H](C)C(C)C)c(F)c1 [Example 199]
14,53,Fc1cc(F)c(-c2c(Cl)nc(-n3ccnn3)nc2NCC(F)(F)F)c(F)c1 [Example 212]
15,30,COc1ccc(-c2c(Cl)nc(C(N)=NO)nc2N[C@@H](C)C(C)C)c(Cl)c1 [Example 185]
16,44,CCON=C(N)c1nc(Cl)c(-c2c(F)cc(F)cc2F)c(N[C@H](C)C(F)(F)F)n1 [Example 158]
17,42,CNC(=O)c1nc(Cl)c(-c2c(F)cc(F)cc2F)c(N[C@@H](C)C(F)(F)F)n1 [Example 174]
18,41,C[C@H](Nc1nc(C(N)=O)nc(Cl)c1-c1c(F)cccc1F)C(F)(F)F [Example 180]
19,20,CC(C)[C@H](C)Nc1nc(C(N)=NO)nc(Cl)c1-c1c(F)cccc1F [Example 195]
